Data: US6420129B1, “Reagent composition for determination of electrolytes” (Toyo Boseki Kabushiki Kaisha, priority 1998, dated 2002)

What was measured:
[1] = Visual observation of test solutions for deposition of crystals or white turbidity; type: physicochemical; set-up: key to turbidity (visual observation): +: turbidity found; −: no turbidity
Description: Among the reagents for the determination of calcium with the reagent formulations as described below, test enzyme solutions were prepared by the addition of glucosyl-α-cyclodextrin (G1αCD), maltosyl-α-cyclodextrin (G2αCD), glucosyl-p-cyclodextrin (G1βCD), or maltosyl-β-cyclodextrin(G2βCD) as a cyclodextrin derivative to have a concentration of 0, 1.5, 3, 6, or 12 mM. To the test enzyme solutions containing 3 mM glucosyl-β-cyclodextrin was further added independently N-acetylcysteine or reduced glutathione to have a concentration of 2.5, 5, 10, or 20 mM.
Both kinds of test solutions prepared by the above procedures were stored at 4° C. for 3 months. Visual observation of the test solutions was carried out just after the preparation and after the storage to examine whether there was found the deposition of crystals or the presence of white turbidity. The results are shown in table 1 for the visual observation just after the preparation and in Table 2 for the visual observation after the storage.
The test solutions were prepared in the same manner as described in Example 1, except that α-cyclodextrin (αCD) (1.5, 3, 6, or 12 mM), β-cyclodextrin (βCD) (1.5, 3, 6, or 12 mM), or γ-cyclodextrin (γCD) (1.5, 3, 6, or 12 mM) was independently added instead of the cyclodextrin derivatives and the SH group containing compounds in the above reagent formulations to have the respective concentrations as shown in Table 1. Both kinds of test solutions were stored at 4° C. for 3 months. Visual observation of the test solutions was carried out just after the preparation and after the storage to examine whether there was found the deposition of crystals or the presence of white turbidity. The results are shown in Table 1 for the visual observation just after the preparation and in Table 2 for the visual observation after the storage.

[2] = target: T1, Inactive α-amylase (from swine pancreas) (Sus scrofa, UniProt P00690); assay: Residual activity of α-amylase in test enzyme solutions after storage; type: biochemical; settings: after storage at 35° C. for 7 days
T1 construct: α-amylase derived from the swine pancreas; from tissue; host or cells: swine pancreas
T1 sequence (P00690 16-511): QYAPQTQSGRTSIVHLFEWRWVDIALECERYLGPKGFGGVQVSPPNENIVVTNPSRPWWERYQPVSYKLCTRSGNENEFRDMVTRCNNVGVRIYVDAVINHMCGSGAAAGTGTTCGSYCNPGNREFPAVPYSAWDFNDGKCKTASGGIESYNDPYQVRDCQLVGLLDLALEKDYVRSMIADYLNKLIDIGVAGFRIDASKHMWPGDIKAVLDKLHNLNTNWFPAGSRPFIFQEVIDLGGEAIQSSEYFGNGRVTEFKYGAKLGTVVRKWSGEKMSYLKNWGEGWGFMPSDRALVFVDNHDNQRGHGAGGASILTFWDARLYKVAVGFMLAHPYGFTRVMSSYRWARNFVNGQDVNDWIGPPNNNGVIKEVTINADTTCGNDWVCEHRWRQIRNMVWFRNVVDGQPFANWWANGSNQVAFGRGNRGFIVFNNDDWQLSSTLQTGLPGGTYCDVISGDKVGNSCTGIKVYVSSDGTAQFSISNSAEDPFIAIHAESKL
Description: [table] In the test enzyme solutions of the reagents for the determination of calcium with the reagent formulations as described above in Example 1, glucosyl-α-cyclodextrin, maltosyl-α-cyclodextrin, glucosyl-β-cyclodextrin, or maltosyl-β-cyclodextrin was independently added as a cyclodextrin derivative at 12 mM. […] Instead of the cyclodextrin derivatives and the SH group containing compounds in the reagent formulations as described above in Example 1, glucose (100 mM), maltose (50 mM), maltotriose (30 mM), α-cyclodextrin (1.5 mM), β-cyclodextrin (1.5 mM), γ-cyclodextrin (1.5 mM), N-acetylcysteine (20 mM), or reduced glutathione (20 mM) was independently added to have the respective concentrations as shown in Table 3.

[3] = target: T1, Inactive α-amylase (from swine pancreas); assay: Relative sensitivity in determination of calcium with 10 mg/dl calcium standard solution; type: biochemical; settings: just after the preparation, 10 mg/dl calcium standard
Description: [table] In the test enzyme solutions of the reagents for the determination of calcium with the reagent formulations as described above in Example 1, glucosyl-α-cyclodextrin, maltosyl-α-cyclodextrin, glucosyl-β-cyclodextrin, or maltosyl-β-cyclodextrin was independently added as a cyclodextrin derivative at 0, 1.5, 3, 6, or 12 mM. To the test enzyme solutions containing 3 mM glucosyl-β-cyclodextrin was further added independently N-acetylcysteine or reduced glutathione at 2.5, 5, 10, or 20 mM, and the determination of calcium ions with a calcium standard solution was carried out as described below. According to the method as described below, the determination of the amount of calcium was carried out for test solutions just after the preparation with 10 mg/dl calcium standard solution as a sample, and the relative sensitivity (%) was determined under the respective reagent conditions when the sensitivity in the case of no addition of cyclodextrin derivatives was taken as 100%. B. Method for the Determination of the Amount of Calcium To 5.8 μl of a sample was added 180 μl of a test enzyme solution, and the mixture was pre-warmed for 5 minutes, to which 90 μl of a test substrate solution was further added to make the reaction start. […] The measuring apparatus used was HITACHI Automatic Analyzer model 7170. The measurement wavelength was 405 nm for the principal wavelength and 546 nm for the second wavelength. The measurement was carried out at 37° C. […] The test solutions thus prepared were used for the determination of the calcium standard solution in the same manner as described in Example 3.

[4] = after storage at 4° C. for 3 months, agent added 1.5 mM
[5] = after storage at 4° C. for 3 months, agent added 3 mM
[6] = after storage at 4° C. for 3 months, agent added 6 mM
[7] = after storage at 4° C. for 3 months, agent added 12 mM
[8] = just after the preparation, agent added 1.5 mM
[9] = just after the preparation, agent added 3 mM
[10] = just after the preparation, agent added 6 mM
[11] = just after the preparation, agent added 12 mM
[12] = after the storage at 4° C. for 3 months, at 3 mM
[13] = just after the preparation, at 6 mM

| SMILES | turbidity (visual observation) [1, 4] | turbidity (visual observation) [1, 5] | turbidity (visual observation) [1, 6] | turbidity (visual observation) [1, 7] | turbidity (visual observation) [1, 8] | turbidity (visual observation) [1, 9] | turbidity (visual observation) [1, 10] | turbidity (visual observation) [1, 11] | Residual activity (%) ([2]; agent 12 mM) | Relative sensitivity (%) when sensitivity in case of no addition is taken as 100% ([3]; agent 1.5 mM) | Relative sensitivity (%) when sensitivity in case of no addition is taken as 100% ([3]; agent 3 mM) | Relative sensitivity (%) when sensitivity in case of no addition is taken as 100% ([3]; agent 6 mM) | Relative sensitivity (%) when sensitivity in case of no addition is taken as 100% ([3]; agent 12 mM) | Residual activity (%) ([2]; agent 20 mM) | remaining activity at 20000 µM ([2]; agent 20 mM) | turbidity of test enzyme solution (in words) [1, 12] | turbidity of test enzyme solution (in words) [1, 13] | Residual activity (%) ([2]; agent 1.5 mM) |
| --- | --- | --- | --- | --- | --- | --- | --- | --- | --- | --- | --- | --- | --- | --- | --- | --- | --- | --- |
| OCC1OC(OCC2OC3OC4C(CO)OC(OC5C(CO)OC(OC6C(CO)OC(OC7C(CO)OC(OC8C(CO)OC(OC2C(O)C3O)C(O)C8O)C(O)C7O)C(O)C6O)C(O)C5O)C(O)C4O)C(O)C(O)C1O (stereo not drawn) [G1αCD, glucosyl-α-cyclodextrin] | − | − | − | − | − | − | − | − | 80.4% | 112.8% | 120.2% | 122.3% | 118.9% |  |  |  |  |  |
| OCC1OC(OC2C(CO)OC(OCC3OC4OC5C(CO)OC(OC6C(CO)OC(OC7C(CO)OC(OC8C(CO)OC(OC9C(CO)OC(OC3C(O)C4O)C(O)C9O)C(O)C8O)C(O)C7O)C(O)C6O)C(O)C5O)C(O)C2O)C(O)C(O)C1O (stereo not drawn) [G2αCD, maltosyl-α-cyclodextrin] | − | − | − | − | − | − | − | − | 82.3% | 112.5% | 123.0% | 119.4% | 122.8% |  |  |  |  |  |
| OCC1OC(OC2C(CO)OC(OCC3OC4OC5C(CO)OC(OC6C(CO)OC(OC7C(CO)OC(OC8C(CO)OC(OC9C(CO)OC(OC%10C(CO)OC(OC3C(O)C4O)C(O)C%10O)C(O)C9O)C(O)C8O)C(O)C7O)C(O)C6O)C(O)C5O)C(O)C2O)C(O)C(O)C1O (stereo not drawn) [G2βCD, maltosyl-β-cyclodextrin] | − | − | − | − | − | − | − | − | 93.0% | 122.8% | 120.7% | 120.2% | 123.0% |  |  |  |  |  |
| N[C@@H](CCC(=O)N[C@@H](CS)C(=O)NCC(=O)O)C(=O)O [GSH, reduced glutathione] |  |  |  |  |  |  |  |  |  |  |  |  |  | 75.4% |  |  |  |  |
| CC(=O)N[C@@H](CS)C(=O)O [NAC, N-acetylcysteine] |  |  |  |  |  |  |  |  |  |  |  |  |  |  | 71.2% |  |  |  |
| OC[C@H]1O[C@@H]2O[C@H]3[C@H](O)[C@@H](O)[C@@H](O[C@H]4[C@H](O)[C@@H](O)[C@@H](O[C@H]5[C@H](O)[C@@H](O)[C@@H](O[C@H]6[C@H](O)[C@@H](O)[C@@H](O[C@H]7[C@H](O)[C@@H](O)[C@@H](O[C@H]1[C@H](O)[C@H]2O)O[C@@H]7CO)O[C@@H]6CO)O[C@@H]5CO)O[C@@H]4CO)O[C@@H]3CO [αCD, α-cyclodextrin, reference compound] | − | − | + | + | − | − | + | + |  |  |  |  |  |  |  | became turbid | had already become turbid | 70.5% |
| OC[C@H]1O[C@@H]2O[C@H]3[C@H](O)[C@@H](O)[C@@H](O[C@H]4[C@H](O)[C@@H](O)[C@@H](O[C@H]5[C@H](O)[C@@H](O)[C@@H](O[C@H]6[C@H](O)[C@@H](O)[C@@H](O[C@H]7[C@H](O)[C@@H](O)[C@@H](O[C@H]8[C@H](O)[C@@H](O)[C@@H](O[C@H]9[C@H](O)[C@@H](O)[C@@H](O[C@H]1[C@H](O)[C@H]2O)O[C@@H]9CO)O[C@@H]8CO)O[C@@H]7CO)O[C@@H]6CO)O[C@@H]5CO)O[C@@H]4CO)O[C@@H]3CO [γCD, γ-cyclodextrin, reference compound] | − | − | + | + | − | − | + | + |  |  |  |  |  |  |  | became turbid | had already become turbid | 74.6% |
